The values below are quoted from earlier work in US11945788B2, “Process for preparing pitolisant hydrochloride and solid-state forms thereof” (Nuray Chemicals Private Limited, priority 2021, dated 2024).

With `Cl.Clc1ccc(CCCOCCCN2CCCCC2)cc1` [Pitolisant hydrochloride, 1-{3-[3-(4-chlorophenyl)propoxy]propyl}piperidine hydrochloride], the solubility in cyclohexane result (solvent: cyclohexane) is on record as “practically insoluble”. Further, the solubility in ethanol result (solvent: ethanol) was “soluble”. Moreover, where the note is “solvent: methylene chloride”, the “solubility in methylene chloride” value is recorded as “soluble”. Under “solvent: water”, the solubility in water result is recorded as “soluble”.
